Key:
NCI-H1694 = assay: cells; type: functional, cell-based, Homo sapiens; details: Homo sapiens, NCI-H1694;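 note: cell viability assay measuring inhibition of growth in human NCI-H1694 cells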
Description: SANGER: Inhibition of human NCI-H1694 cell growth in a cell viability assay.

MKN-1 = assay: cells; type: functional, cell-based; details: Homo sapiens;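 note: growth inhibition of human MKN1 cells, read out by a cell viability measurement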
Description: SANGER: Inhibition of human MKN1 cell growth in a cell viability assay.

MDA-MB-361 = assay: cells; type: functional, cell-based; details: Homo sapiens
L-540 = assay: cells; type: functional, cell-based, Homo sapiens; details: Homo sapiens, L-540;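 note: growth inhibition of the human L-540 cell line, read out with a viability assay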
Description: SANGER: Inhibition of human L-540 cell growth in a cell viability assay.

SK-HEP1 = assay: cells; type: functional, cell-based, SK-HEP-1; details: Homo sapiens;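 note: cell viability readout used to quantify reduction in proliferation of human SK-HEP-1 cells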
Description: SANGER: Inhibition of human SK-HEP-1 cell growth in a cell viability assay.

RVH-421 = assay: cells; type: functional, cell-based; details: Homo sapiens
Description: SANGER: Inhibition of human RVH-421 cell growth in a cell viability assay.

23132-87 = assay: cells; type: functional, cell-based; details: Homo sapiens
Description: SANGER: Inhibition of human 23132-87 cell growth in a cell viability assay.

OE19 = assay: cells; type: functional, cell-based; details: Homo sapiens;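 note: growth inhibition of OE19 cells, measured through a cell viability read-out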
Description: SANGER: Inhibition of human OE19 cell growth in a cell viability assay.

CMK = assay: cells; type: functional, cell-based, Homo sapiens; details: Homo sapiens, CMK;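 note: growth inhibition of CMK cells, read out as cell viability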
Description: SANGER: Inhibition of human CMK cell growth in a cell viability assay.

BC1 cell line = assay: SANGER: Inhibition of human BC-1 cell growth in a cell viability assay.; type: functional, cell-based; details: Homo sapiens, BC1
PANC-03-27 = assay: cells; type: functional, cell-based; details: Homo sapiens
Description: SANGER: Inhibition of human PANC-03-27 cell growth in a cell viability assay.

U2OS = assay: cells; type: functional, cell-based, U-2-OS; details: Homo sapiens;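 note: growth inhibition of human U-2-OS cells, determined with a cell viability assay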
Description: SANGER: Inhibition of human U-2-OS cell growth in a cell viability assay.

CAL-51 = assay: cells; type: functional, cell-based; details: Homo sapiens;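 note: human CAL-51 cell line, growth inhibition read out via a cell viability assay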
Description: SANGER: Inhibition of human CAL-51 cell growth in a cell viability assay.

TE-441-T = assay: cells; type: functional, cell-based, Homo sapiens; details: Homo sapiens, TE-441-T
Description: SANGER: Inhibition of human TE-441-T cell growth in a cell viability assay.

COLO-792 = assay: cells; type: functional, cell-based; details: Homo sapiens
Description: SANGER: Inhibition of human COLO-792 cell growth in a cell viability assay.

SW837 = assay: cells; type: functional, cell-based; details: Homo sapiens;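 note: growth inhibition of SW837 cells, determined with a cell viability assay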
Description: SANGER: Inhibition of human SW837 cell growth in a cell viability assay.

IGR-1 = assay: cells; type: functional, cell-based; details: Homo sapiens;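 note: growth inhibition of human IGR-1 cells, read out with a cell viability assay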
Description: SANGER: Inhibition of human IGR-1 cell growth in a cell viability assay.

CaR-1 = assay: cells; type: functional, cell-based; details: Homo sapiens;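 note: growth inhibition of human CaR-1 cancer cells, read out with a cell viability assay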
Description: SANGER: Inhibition of human CaR-1 cell growth in a cell viability assay.

CHL-1 = assay: cells; type: functional, cell-based; details: Homo sapiens;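 note: cell growth inhibition, read out with a cell viability assay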
Description: SANGER: Inhibition of human CHL-1 cell growth in a cell viability assay.

SK-MES-1 = assay: cells; type: functional, cell-based; details: Homo sapiens;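 note: growth inhibition of human SK-MES-1 cells, read out with a cell viability assay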
Description: SANGER: Inhibition of human SK-MES-1 cell growth in a cell viability assay.

MEL-JUSO = assay: cells; type: functional, cell-based; details: Homo sapiens;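 note: growth inhibition of human MEL-JUSO cells, read out with a cell viability assay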
Description: SANGER: Inhibition of human MEL-JUSO cell growth in a cell viability assay.

HCC1954 = assay: cells; type: functional, cell-based; details: Homo sapiens;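 note: growth inhibition of human HCC1954 cells, read out with a cell viability assay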
Description: SANGER: Inhibition of human HCC1954 cell growth in a cell viability assay.

A-375 = assay: cells; type: functional, cell-based; details: Homo sapiens;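 note: growth inhibition of A375 cells, read out with a cell viability assay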
Description: SANGER: Inhibition of human A375 cell growth in a cell viability assay.

786-0 = assay: cells; type: functional, cell-based; details: Homo sapiens
Description: SANGER: Inhibition of human 786-0 cell growth in a cell viability assay.

MC-CAR = assay: cells; type: functional, cell-based, Homo sapiens; details: Homo sapiens, MC-CAR;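 note: growth inhibition of the human MC-CAR cell line, read out by a cell viability assay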
Description: SANGER: Inhibition of human MC-CAR cell growth in a cell viability assay.

KP-4 = assay: cells; type: functional, cell-based; details: Homo sapiens;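 note: human KP-4 cells, with growth inhibition read out through a cell viability assay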
Description: SANGER: Inhibition of human KP-4 cell growth in a cell viability assay.

MDA-MB-157 = assay: cells; type: functional, cell-based; details: Homo sapiens
Description: SANGER: Inhibition of human MDA-MB-157 cell growth in a cell viability assay.

WSU-NHL = assay: cells; type: functional, cell-based, Homo sapiens; details: Homo sapiens, WSU-NHL;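 note: growth inhibition of human WSU-NHL cells, read out with a cell viability assay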
Description: SANGER: Inhibition of human WSU-NHL cell growth in a cell viability assay.

NCI-H1417 = assay: cells; type: functional, cell-based, Homo sapiens; details: Homo sapiens, NCI-H1417;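 note: human NCI-H1417 cells, growth inhibition determined with a cell viability readout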
Description: SANGER: Inhibition of human NCI-H1417 cell growth in a cell viability assay.

EFO-21 = assay: cells; type: functional, cell-based; details: Homo sapiens;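 note: growth inhibition of EFO-21 cells measured with a viability assay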
Description: SANGER: Inhibition of human EFO-21 cell growth in a cell viability assay.

SK-MEL-28 = assay: cells; type: functional, cell-based; details: Homo sapiens;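 note: growth inhibition of human SK-MEL-28 cells, read out with a cell viability assay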
Description: SANGER: Inhibition of human SK-MEL-28 cell growth in a cell viability assay.

KYSE-520 cell line = assay: cells; type: functional, cell-based; details: Homo sapiens;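 note: growth inhibition of human KYSE-520 cells, read out with a viability assay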
Description: SANGER: Inhibition of human KYSE-520 cell growth in a cell viability assay.

A 172 = assay: cells; type: functional, cell-based; details: Homo sapiens;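 note: growth inhibition of A172 cells, measured with a cell viability readout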
Description: SANGER: Inhibition of human A172 cell growth in a cell viability assay.

MHH-CALL-2 = assay: cells; type: functional, cell-based, Homo sapiens; details: Homo sapiens, MHH-CALL-2;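 note: growth inhibition of the cell line, read out in a cell viability assay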
Description: SANGER: Inhibition of human MHH-CALL-2 cell growth in a cell viability assay.

Daudi = assay: cells; type: functional, cell-based, Homo sapiens; details: Homo sapiens, Daudi;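 note: growth inhibition of Daudi cells, read out by a viability assay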
Description: SANGER: Inhibition of human Daudi cell growth in a cell viability assay.

BEN = assay: cells; type: functional, cell-based; details: Homo sapiens;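 note: growth inhibition of the BEN cell line, read out with a cell viability assay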
Description: SANGER: Inhibition of human BEN cell growth in a cell viability assay.

CHP-212 = assay: cells; type: functional, cell-based; details: Homo sapiens
Description: SANGER: Inhibition of human CHP-212 cell growth in a cell viability assay.

ABC-1 = assay: cells; type: functional, cell-based; details: Homo sapiens;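 note: growth inhibition of human ABC-1 cells, read out by a cell viability assay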
Description: SANGER: Inhibition of human ABC-1 cell growth in a cell viability assay.

KYSE-70 cell line = assay: cells; type: functional, cell-based; details: Homo sapiens;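 note: cell viability assay read-out, with IC50 expressing suppression of KYSE-70 cell growth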
Description: SANGER: Inhibition of human KYSE-70 cell growth in a cell viability assay.

NCI-H1693 = assay: cells; type: functional, cell-based; details: Homo sapiens;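 note: growth inhibition of the human cell line, read out with a cell viability assay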
Description: SANGER: Inhibition of human NCI-H1693 cell growth in a cell viability assay.

NCI-H1651 = assay: cells; type: functional, cell-based; details: Homo sapiens;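 note: Read-out is a cell viability assay, with IC50 expressing inhibition of NCI-H1651 cell growth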
Description: SANGER: Inhibition of human NCI-H1651 cell growth in a cell viability assay.

HuP-T4 = assay: cells; type: functional, cell-based; details: Homo sapiens;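 note: cell viability assay measuring how much HuP-T4 cell growth is inhibited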
Description: SANGER: Inhibition of human HuP-T4 cell growth in a cell viability assay.

SNU-449 = assay: cells; type: functional, cell-based; details: Homo sapiens
Description: SANGER: Inhibition of human SNU-449 cell growth in a cell viability assay.

YT = assay: cells; type: functional, cell-based, Homo sapiens; details: Homo sapiens, YT
Description: SANGER: Inhibition of human YT cell growth in a cell viability assay.

SF-295 = assay: cells; type: functional, cell-based; details: Homo sapiens;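 note: growth inhibition of SF-295 cells, read out with a cell viability assay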
Description: SANGER: Inhibition of human SF295 cell growth in a cell viability assay.

LCLC-103H cell line = assay: cells; type: functional, cell-based; details: Homo sapiens
Description: SANGER: Inhibition of human LCLC-103H cell growth in a cell viability assay.

NCI-H889 = assay: cells; type: functional, cell-based, Homo sapiens; details: Homo sapiens, NCI-H889;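 note: cell growth inhibition of the cell line, read out with a viability assay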
Description: SANGER: Inhibition of human NCI-H889 cell growth in a cell viability assay.

SK-MEL3 = assay: cells; type: functional, cell-based, SK-MEL-3; details: Homo sapiens;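 note: growth inhibition of human SK-MEL-3 cells, read out with a cell viability assay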
Description: SANGER: Inhibition of human SK-MEL-3 cell growth in a cell viability assay.

HO-1-N-1 = assay: cells; type: functional, cell-based; details: Homo sapiens;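 note: growth inhibition of human HO-1-N-1 cells, read out with a cell viability assay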
Description: SANGER: Inhibition of human HO-1-N-1 cell growth in a cell viability assay.

GCT = assay: cells; type: functional, cell-based; details: Homo sapiens;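 note: GCT cell line proliferation inhibition, read out with a cell viability assay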
Description: SANGER: Inhibition of human GCT cell growth in a cell viability assay.

THP-1 = assay: cells; type: functional, cell-based, Homo sapiens; details: Homo sapiens, THP-1;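 note: growth inhibition of THP-1 cells, read out via a cell viability assay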
Description: SANGER: Inhibition of human THP-1 cell growth in a cell viability assay.

HC-1 = assay: cells; type: functional, cell-based, Homo sapiens; details: Homo sapiens, HC-1;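 note: growth inhibition of HC-1 cells measured by a cell viability assay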
Description: SANGER: Inhibition of human HC-1 cell growth in a cell viability assay.

RMG-I = assay: cells; type: functional, cell-based; details: Homo sapiens;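 note: growth inhibition of human RMG-I cells, read out with a cell viability assay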
Description: SANGER: Inhibition of human RMG-I cell growth in a cell viability assay.

SJRH30 = assay: cells; type: functional, cell-based; details: Homo sapiens;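 note: growth inhibition of human SJRH30 cells, read out with a cell viability assay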
Description: SANGER: Inhibition of human SJRH30 cell growth in a cell viability assay.

MRK-nu-1 = assay: cells; type: functional, cell-based, Homo sapiens; details: Homo sapiens, MRK-nu-1;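 note: cell viability assay measuring growth suppression of human MRK-nu-1 cells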
Description: SANGER: Inhibition of human MRK-nu-1 cell growth in a cell viability assay.

HCT-15 = assay: cells; type: functional, cell-based; details: Homo sapiens;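 note: cell viability readout, IC50 reflecting suppression of HCT-15 cell growth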
Description: SANGER: Inhibition of human HCT-15 cell growth in a cell viability assay.

HuCCT-1 = assay: cells; type: functional, cell-based, HuCCT1; details: Homo sapiens;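 note: growth inhibition of HuCCT-1 cells, read out by a cell viability assay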
Description: SANGER: Inhibition of human HuCCT1 cell growth in a cell viability assay.

NCI-H524 = assay: cells; type: functional, cell-based, Homo sapiens; details: Homo sapiens, NCI-H524;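 note: growth inhibition of human NCI-H524 cells, read out through a cell viability assay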
Description: SANGER: Inhibition of human NCI-H524 cell growth in a cell viability assay.

G-401 = assay: cells; type: functional, cell-based; details: Homo sapiens
Description: SANGER: Inhibition of human G-401 cell growth in a cell viability assay.

Compound: COc1ccc(-c2cc3nccn3c(Nc3ncccc3C(N)=O)n2)cc1OC
- IC50 (NCI-H1694): > 8 µM
- IC50 (MKN-1): 7.3 µM
- IC50 (MDA-MB-361): > 8 µM
- IC50 (L-540): > 8 µM
- IC50 (SK-HEP1): 1820 nM
- IC50 (RVH-421): > 8 µM
- IC50 (23132-87): > 8 µM
- IC50 (OE19): > 8 µM
- IC50 (CMK): 682 nM
- IC50 (BC1 cell line): 1070 nM
- IC50 (PANC-03-27): 5.56 µM
- IC50 (U2OS): > 8 µM
- IC50 (CAL-51): 3.02 µM
- IC50 (TE-441-T): 3.96 µM
- IC50 (COLO-792): > 8 µM
- IC50 (SW837): 3.54 µM
- IC50 (IGR-1): 6.54 µM
- IC50 (CaR-1): > 8 µM
- IC50 (CHL-1): 4.05 µM
- IC50 (SK-MES-1): 1810 nM
- IC50 (MEL-JUSO): 2740 nM
- IC50 (HCC1954): > 8 µM
- IC50 (A-375): 1270 nM
- IC50 (786-0): 1360 nM
- IC50 (MC-CAR): 1140 nM
- IC50 (KP-4): > 8 µM
- IC50 (MDA-MB-157): > 8 µM
- IC50 (WSU-NHL): 1380 nM
- IC50 (NCI-H1417): > 8 µM
- IC50 (EFO-21): > 8 µM
- IC50 (SK-MEL-28): > 8 µM
- IC50 (KYSE-520 cell line): > 8 µM
- IC50 (A 172): 2220 nM
- IC50 (MHH-CALL-2): > 8 µM
- IC50 (Daudi): 607 nM
- IC50 (BEN): > 8 µM
- IC50 (CHP-212): 6.45 µM
- IC50 (ABC-1): > 8 µM
- IC50 (KYSE-70 cell line): > 8 µM
- IC50 (NCI-H1693): > 8 µM
- IC50 (NCI-H1651): 4.15 µM
- IC50 (HuP-T4): 7.99 µM
- IC50 (SNU-449): > 8 µM
- IC50 (YT): 2340 nM
- IC50 (SF-295): > 8 µM
- IC50 (LCLC-103H cell line): 3.08 µM
- IC50 (NCI-H889): > 8 µM
- IC50 (SK-MEL3): 5.06 µM
- IC50 (HO-1-N-1): > 8 µM
- IC50 (GCT): 799 nM
- IC50 (THP-1): > 8 µM
- IC50 (HC-1): 754 nM
- IC50 (RMG-I): > 8 µM
- IC50 (SJRH30): > 8 µM
- IC50 (MRK-nu-1): 2910 nM
- IC50 (HCT-15): 6.64 µM
- IC50 (HuCCT-1): > 8 µM
- IC50 (NCI-H524): > 8 µM
- IC50 (G-401): 5.75 µM

Compound: COC(=O)[C@H](CCSC)NC(=O)c1ccc(NC[C@@H](N)CS)cc1-c1ccccc1
- IC50 (NCI-H1694): > 1.02 µM
- IC50 (MKN-1): > 1.02 µM
- IC50 (MDA-MB-361): > 1.02 µM
- IC50 (L-540): > 1.02 µM
- IC50 (SK-HEP1): > 1020 nM
- IC50 (RVH-421): > 1.02 µM
- IC50 (23132-87): > 1.02 µM
- IC50 (OE19): > 1.02 µM
- IC50 (CMK): > 1020 nM
- IC50 (BC1 cell line): > 1020 nM
- IC50 (PANC-03-27): > 1.02 µM
- IC50 (U2OS): > 1.02 µM
- IC50 (CAL-51): > 1.02 µM
- IC50 (TE-441-T): > 1.02 µM
- IC50 (COLO-792): > 1.02 µM
- IC50 (SW837): > 1.02 µM
- IC50 (IGR-1): > 1.02 µM
- IC50 (CaR-1): > 1.02 µM
- IC50 (CHL-1): > 1.02 µM
- IC50 (SK-MES-1): > 1020 nM
- IC50 (MEL-JUSO): 184 nM
- IC50 (HCC1954): > 1.02 µM
- IC50 (A-375): > 1020 nM
- IC50 (786-0): > 1020 nM
- IC50 (MC-CAR): > 1020 nM
- IC50 (KP-4): > 1.02 µM
- IC50 (MDA-MB-157): > 1.02 µM
- IC50 (WSU-NHL): > 1020 nM
- IC50 (NCI-H1417): > 1.02 µM
- IC50 (EFO-21): > 1.02 µM
- IC50 (SK-MEL-28): > 1.02 µM
- IC50 (KYSE-520 cell line): > 1.02 µM
- IC50 (A 172): > 1020 nM
- IC50 (MHH-CALL-2): > 1.02 µM
- IC50 (Daudi): > 1020 nM
- IC50 (BEN): > 1.02 µM
- IC50 (CHP-212): > 1.02 µM
- IC50 (ABC-1): > 1.02 µM
- IC50 (KYSE-70 cell line): > 1.02 µM
- IC50 (NCI-H1693): > 1.02 µM
- IC50 (NCI-H1651): > 1.02 µM
- IC50 (HuP-T4): > 1.02 µM
- IC50 (SNU-449): > 1.02 µM
- IC50 (YT): > 1020 nM
- IC50 (SF-295): > 1.02 µM
- IC50 (LCLC-103H cell line): > 1.02 µM
- IC50 (NCI-H889): > 1.02 µM
- IC50 (SK-MEL3): > 1.02 µM
- IC50 (HO-1-N-1): > 1.02 µM
- IC50 (GCT): > 1020 nM
- IC50 (THP-1): > 1.02 µM
- IC50 (HC-1): > 1020 nM
- IC50 (RMG-I): > 1.02 µM
- IC50 (SJRH30): > 1.02 µM
- IC50 (MRK-nu-1): > 1020 nM
- IC50 (HCT-15): > 1.02 µM
- IC50 (HuCCT-1): > 1.02 µM
- IC50 (NCI-H524): > 1.02 µM
- IC50 (G-401): > 1.02 µM
